Laboratory results taken from patent US20150342847A1, “NOVEL DERIVATIVES OF SINAPINIC ACID AND THE COSMETIC OR PHARMACEUTICAL USES THEREOF” (BASF Beauty Care Solutions France SAS, priority 2012, published 2015).

Key:
[1] = test system: keratinocytes from the A431 line; assay: Antiinflammatory activity: release of E2 prostaglandins by UVB-irradiated keratinocytes (ELISA); format: cell-based
Method: Study of the antiinflammatory activity of the hydroxytyrosol dihydrosinapate of the invention of formula (IIa), by measurement of the inhibition of release of E2 prostaglandins by keratinocytes under the effect of UVB.
The keratinocytes from the A431 line are cultured in an appropriate medium at 37° C. for 72 hours under 5% CO2. The culture medium is then withdrawn and replaced with the medium containing the products under test, and also the positive and negative controls. The cells are subsequently irradiated with UV B at 30 mJ/cm2. The cells are incubated for an extra 24 hours at 37° C. under 5% CO2. The cell supernatants are subsequently recovered, and the E2 prostaglandins (PGE2) released are quantified by an ELISA assay.
An amount of 100 μL of each sample, control or PGE2 standard is transferred to the wells of a 96-well plate, which are coated with antibodies directed against rat immunoglobulin G (IgG). Then an amount of 25 μL of PGE2-peroxidase conjugate is added to each well, followed by an amount of 25 μL of anti-PGE2 monoclonal antibody. The plate is incubated at 4° C. overnight. The wells are then rinsed and an amount of 100 μL of peroxidase substrate is added. After 15 minutes of incubation at ambient temperature, the optical density is read off at 450 nm. The amount of prostaglandin E2 released after irradiation is deduced from a commercial PGE2 standard range from 0 to 400 pg/mL of PGE2.
The negative control, represented by the cells which were not treated with samples and which underwent irradiation by UV B, gave rise to 100% release of PGE2. The positive experimental control is aspirin, which at 0.03% gave rise to 5%+/−2% release of PGE2.

human tyrosinase = molecular target: T1, human tyrosinase (Homo sapiens, UniProt P14679); assay: Anti-human tyrosinase activity in normal human melanocytes (MBTH/L-Dopa, OD490); format: cell-based; conditions: normal human melanocytes, read-out: % inhibition of activity of tyrosinase +/− standard deviation
T1 construct: endogenous in cells; host or cells: normal human melanocytes obtained from abdominal plasty
T1 sequence (P14679 19-529): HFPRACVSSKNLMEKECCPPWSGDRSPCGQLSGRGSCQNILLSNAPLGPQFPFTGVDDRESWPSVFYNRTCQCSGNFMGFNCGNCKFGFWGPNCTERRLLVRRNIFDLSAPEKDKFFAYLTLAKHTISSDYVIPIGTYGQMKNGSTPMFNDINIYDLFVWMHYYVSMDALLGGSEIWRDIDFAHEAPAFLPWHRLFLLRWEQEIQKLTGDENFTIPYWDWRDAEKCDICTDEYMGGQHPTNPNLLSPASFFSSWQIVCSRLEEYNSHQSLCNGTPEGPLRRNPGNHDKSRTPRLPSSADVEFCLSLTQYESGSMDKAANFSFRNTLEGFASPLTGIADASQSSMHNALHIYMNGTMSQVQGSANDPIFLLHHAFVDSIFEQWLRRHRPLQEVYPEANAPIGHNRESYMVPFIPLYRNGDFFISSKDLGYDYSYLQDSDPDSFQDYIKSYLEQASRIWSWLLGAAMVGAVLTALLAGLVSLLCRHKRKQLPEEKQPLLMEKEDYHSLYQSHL
Method: Study of the inhibition of tyrosinase by the hydroxytyrosol dihydrosinapate of the invention of formula (IIa), in comparison with the prior-art ferulic acid derivative, by quantitative analysis of the human tyrosinase activity of melanocytes cultured as a monolayer following application of the compound under test. Normal human melanocytes (obtained from abdominal plasty) are seeded in a 24-well plate at 80000 cells per well. They are cultured until confluence, and the compounds under test are applied in the culture media for 24 hours. After 24 hours, the media are removed and the melanocytes are detached by mechanical action. Extraction is carried out by thermal shock and then the supernatants are recovered and incubated with MBTH (methyl benzothiazolinone-hydrazone) (Sigma) and L-Dopa (Sigma). The optical density (OD) at 490 nm (OD490) is measured after 30 minutes of incubation, and the inhibition of tyrosinase is calculated according to the following formula: % inhibition=100−[100×(OD490 sample/level of proteins in sample)/(OD490 negative control/level of proteins in negative control)] The OD490 is therefore related to the level of protein, which is the measurement in each culture well. […] The results are presented as % inhibition of activity of tyrosinase, in Table 2.

[2] = TBARS test, lipid peroxidation of UVB-irradiated liposomal suspension; conditions: for % inhibition of lipid peroxidation: UVB 2 hours
Method: Study of the radical scavenger activity of the hydroxytyrosol dihydrosinapate of the invention of formula (IIa) and of the prior-art ferulic acid derivative by the TBARS test.
Two identical 96-well plates are produced according to a defined plate plan. 50 μL of a sample mixture prepared by diluting a solution of a test compound or of a negative control (vehicle medium without test compound) or of a positive control (D-L-alpha-tocopherol) to 1/10 in a liposomal suspension are distributed per well, in quadruplicate. One of the two plates is irradiated with UVB for 2 hours. The other plate, serving as a control, is incubated in the absence of light and at ambient temperature for 2 hours.
At the end of irradiation, an amount of 100 μL of 20% trichloroacetic acid solution was added per well, followed by an amount of 34 μL of 1% thiobarbituric acid solution. The plates are then incubated at 105° C. for 25 minutes.
The contents of each well are centrifuged at 5700 rpm for 5 minutes, and then an amount of 100 μL of supernatant was deposited in new plates, according to the same plan, and the absorbance was read off at 530 nm.
The positive experimental control was D-L-alpha-tocopherol, at a concentration of 1%, for which a percentage inhibition of 80% was obtained.

[3] = test system: melanocytes of murine line B16; assay: Inhibition of melanin production in B16 melanocytes stimulated with an α-MSH derivative; format: cell-based; conditions: Mus musculus, B16 cells
Method: Determination of the percentage inhibition of melanin production by the hydroxytyrosol dihydrosinapate of the invention of formula (IIa) or the ferulic acid derivative of the prior art, by quantitative analysis of the total melanin synthesized by melanocytes of murine line B16 following application of the compound under test.
Melanocytes (B16 cells) are cultured for 24 hours in a 96-well plate in an appropriate medium. […] After 72 hours of incubation, the culture medium is withdrawn, and total melanin is quantified by measuring the absorbance at 405 nm against a standard range of synthetic melanin from 0.78 to 100 μg/mL.
The results are expressed as percentage inhibition of melanin production relative to the negative control, and are presented in Table 1.
The inhibitory activity on melanin production of the product tested is calculated as a percentage according to the following formula:
% inhibition=[(mean stimulated control−mean basal control)−(sample value−mean basal control)]/(mean stimulated control−mean basal control)×100
where: • Mean stimulated control: mean of the values obtained with a medium supplemented with an alpha-MSH derivative • Sample value: value obtained with the compound under test • Mean basal control: Mean of the values obtained with a medium not supplemented with an alpha-MSH derivative

[4] = DPPH radical scavenger test (acellular); conditions: 30 minutes
Source text: Study of the radical scavenger activity of the hydroxytyrosol dihydrosinapate of the invention of formula (IIa) and of the prior-art ferulic acid derivative in an acellular in vitro model, using DPPH.
1,1-Diphenyl-2-picrylhydrazyl, owing to its paramagnetic structure, is able to accept an electron or a hydrogen radical in order to become a stable diamagnetic molecule.
The addition of a compound which provides electrons gives rise to decoloring of the 1,1-diphenyl-2-picrylhydrazyl in a manner proportional to the number of electrons accepted by the radical, and this decoloration can be monitored by measuring the absorbance at 530 nm (OD530).
[…] At the end of the incubation, the radical scavenger activity of the compound under test is evaluated by measuring the absorbance of the solution at 530 nm.
The results are presented as % inhibition of the DPPH radical, in Table 3a).
The radical scavenger activity of the test product is calculated as a percentage, according to the following formula:
100−((OD530 in the presence of the compound under test/OD530 in the absence of compound)×100)

melanocytes = assay: Cytotoxicity, MTT cell viability on melanocytes; format: cell-based; conditions: 0.25%, positive cytotoxicity control
Method: (§1) Study of cell viability following application of the hydroxytyrosol dihydrosinapate of the invention of formula (IIa) to keratinocytes or melanocytes.
(§2) The cells (keratinocytes or melanocytes) were cultured in a 96-well plate at 37° C. under 5% CO2 in an appropriate medium until confluence. The medium was withdrawn and then an amount of 200 μL of a 0.5 mg/mL MTT solution was added. The plates were then incubated at 37° C. for 3 hours, after which the MTT solution was withdrawn from each well and replaced with DMSO. The plates were agitated for 15 minutes, and the optical density was measured at 550 nm.
(§3) The negative cytotoxicity control is PBS. The positive cytotoxicity control is 0.25% SDS. 0.1% DMSO was used as control.

keratinocytes = assay: Cytotoxicity, MTT cell viability on keratinocytes; format: cell-based; conditions: 0.25%, positive cytotoxicity control
Method: as §1, §2, §3

COc1cc(CCC(=O)OCCc2ccc(O)c(O)c2)cc(OC)c1O
inhibition of prostaglandin E2 release (in words) ([1]; keratinocytes, 30 μM, after irradiation with UVB): greatly inhibited prostaglandin E2 release

OC[C@H]1O[C@@H](Oc2ccc(O)cc2)[C@H](O)[C@@H](O)[C@@H]1O [Arbutin, arbutin, reference compound]
inhibition at 1000 µM (human tyrosinase; 1 mM): 65%

Cc1c(C)c2c(c(C)c1O)CCC(C)(CCCC(C)CCCC(C)CCCC(C)C)O2 [D-L-alpha-tocopherol]
percentage inhibition (lipid peroxidation) ([2]; positive control at a concentration of 1%): 80%

O=c1cc(CO)occ1O [Kojic acid, kojic acid]
inhibition at 25 µg/mL ([3]; positive control at 0.025 mg/mL, read-out: percentage inhibition of melanin production): 50%

COc1cc(/C=C/C(=O)NCCc2ccc(O)c(O)c2)ccc1O [Prior-art ferulic acid derivative, N-trans-feruloyldopamine, reference compound]
inhibition at 10 µM ([3]; 10 μM, 72 hours, read-out: % inhibition of melanin +/− standard deviation): 37% | inhibition at 30 µM ([3]; 30 μM, 72 hours, read-out: % inhibition of melanin +/− standard deviation): 76% | inhibition at 50 µM ([3]; 50 μM, 72 hours, read-out: % inhibition of melanin +/− standard deviation): 88% | % inhibition of the DPPH radical ([4]; 1 μM): 6.02 +/− 0.758% | % inhibition of the DPPH radical ([4]; 5 μM): 35.02 +/− 1.209% | % inhibition of the DPPH radical ([4]; 10 μM): 61.85 +/− 1.35% | % inhibition of the DPPH radical ([4]; 30 μM): 89.91 +/− 0.66% | % inhibition of the DPPH radical ([4]; 50 μM): 89.91 +/− 0.59% | % inhibition of the DPPH radical ([4]; 100 μM): 89.91 +/− 0.66% | % inhibition of the DPPH radical ([4]; 1000 μM): 90.99 +/− 0.46% | % inhibition of lipid peroxidation ([2]; 1 μM after dilution to 1/10th in the liposomal suspension): −16.95% | % inhibition of lipid peroxidation ([2]; 5 μM after dilution to 1/10th in the liposomal suspension): 6.69% | % inhibition of lipid peroxidation ([2]; 30 μM after dilution to 1/10th in the liposomal suspension): 11.77% | % inhibition of lipid peroxidation ([2]; 50 μM after dilution to 1/10th in the liposomal suspension): 31.74% | % inhibition of lipid peroxidation ([2]; 100 μM after dilution to 1/10th in the liposomal suspension): 64.04% | % inhibition of lipid peroxidation ([2]; 1000 μM after dilution to 1/10th in the liposomal suspension): 94.72% | inhibition at 1 µM (human tyrosinase; 1 μM, 24 hours): -9.22% | inhibition at 10 µM (human tyrosinase; 10 μM, 24 hours): 18.8% | inhibition at 100 µM (human tyrosinase; 100 μM, 24 hours): 67.8%

CCCCCCCCCCCCOS(=O)(=O)[O-].[Na+] [SDS, reference compound]
Percentage cell viability, Mean (melanocytes): 0.8% | Percentage cell viability, Mean (keratinocytes): 1.3%

CC(=O)Oc1ccccc1C(=O)O [aspirin, reference compound]
% release of PGE2 after irradiation ([1]; A431 keratinocytes, 0.03%, UV B 30 mJ/cm2, positive control): 5%+/−2%
